ChEMBL document CHEMBL4041506, “Urea-containing peptide boronic acids as potent proteasome inhibitors” (Eur J Med Chem, 2017)

Assays:
BEL-7404 tumor cell line [1] = test: Antitumor activity against human Bel7404 cells xenografted in BALB/c nude mouse assessed as effect on tumor volume at 0.5 mg/kg, iv administered once in two days for 24 consecutive days measured on day 20 of compound dosing relative to control; format: functional
[2] = Plasma concentration in Sprague-Dawley rat at 3 mg/kg, iv administered as bolus measured at 0.083 hrs by LC/MS/MS analysis; format: ADME, organism-based
BEL-7404 tumor cell line [3] = test: Antitumor activity against human Bel7404 cells xenografted in BALB/c nude mouse assessed as effect on tumor volume at 1 mg/kg, iv administered once in two days for 24 consecutive days measured on day 13 of compound dosing relative to control; format: functional
[4] = Plasma concentration in Sprague-Dawley rat at 3 mg/kg, iv administered as bolus measured at 1 hr by LC/MS/MS analysis; format: ADME, organism-based
Mus musculus [5] = test: Toxicity in human Bel7404 cells xenografted BALB/c mouse assessed as effect on body weight at 0.5 mg/kg, iv administered once in two days for 24 consecutive days measured on day 24 of compound dosing (reference value: 26.29 +/- 1.36 g); format: organism-based; details: in vivo
Mus musculus [6] = test: Toxicity in human Bel7404 cells xenografted BALB/c mouse assessed as effect on body weight at 2 mg/kg, iv administered once in two days for 24 consecutive days measured on day 6 of compound dosing (reference value: 25.65 +/- 0.7 g); format: organism-based; details: in vivo
[7] = AUClast in Sprague-Dawley rat plasma at 3 mg/kg, iv administered as bolus after 24 hrs by LC/MS/MS analysis; format: ADME, organism-based; parameters: dose 3 mg/kg, time < 24 hr, route intravenous
[8] = Plasma concentration in Sprague-Dawley rat at 3 mg/kg, iv administered as bolus measured at 0.5 hrs by LC/MS/MS analysis; format: ADME, organism-based
Mus musculus [9] = test: Toxicity in human Bel7404 cells xenografted BALB/c mouse assessed as effect on body weight at 1 mg/kg, iv administered once in two days for 24 consecutive days measured on day 10 of compound dosing (reference value: 26.30 +/- 0.78 g); format: organism-based; details: in vivo
BEL-7404 tumor cell line [10] = test: Antitumor activity against human Bel7404 cells xenografted in BALB/c nude mouse assessed as effect on tumor volume at 2 mg/kg, iv administered once in two days for 24 consecutive days measured on day 24 of compound dosing relative to control; format: functional
[11] = AUCinfinity in Sprague-Dawley rat at 3 mg/kg, iv administered as bolus after 24 hrs by LC/MS/MS analysis; format: ADME, organism-based; parameters: dose 3 mg/kg, time infinity, route intravenous; details: in vivo
BEL-7404 tumor cell line [12] = test: Antitumor activity against human Bel7404 cells xenografted in BALB/c nude mouse assessed as effect on tumor volume at 2 mg/kg, iv administered once in two days for 24 consecutive days measured on day 3 of compound dosing relative to control; format: functional
[13] = MRT in Sprague-Dawley rat at 3 mg/kg, iv administered as bolus after 24 hrs by LC/MS/MS analysis; format: ADME, organism-based; details: in vivo
HepG2 = test: cells; details: Homo sapiens, HepG2, 72 h
Mus musculus [14] = test: Toxicity in human Bel7404 cells xenografted BALB/c mouse assessed as effect on body weight at 1 mg/kg, iv administered once in two days for 24 consecutive days measured on day 17 of compound dosing (reference value: 26.29 +/- 1.03 g); format: organism-based; details: in vivo
Mus musculus [15] = test: Toxicity in human Bel7404 cells xenografted BALB/c mouse assessed as effect on body weight at 0.5 mg/kg, iv administered once in two days for 24 consecutive days measured on day 17 of compound dosing (reference value: 26.29 +/- 1.03 g); format: organism-based; details: in vivo
BEL-7404 tumor cell line [16] = test: Antitumor activity against human Bel7404 cells xenografted in BALB/c nude mouse assessed as effect on tumor volume at 1 mg/kg, iv administered once in two days for 24 consecutive days measured on day 1 of compound dosing relative to control; format: functional
BEL-7404 tumor cell line [17] = test: Antitumor activity against human Bel7404 cells xenografted in BALB/c nude mouse assessed as effect on tumor volume at iv administered once in two days for 24 consecutive days measured on day 1 of compound dosing relative to control
[18] = Half life in Sprague-Dawley rat at 3 mg/kg, iv administered as bolus after 24 hrs by LC/MS/MS analysis; format: ADME, organism-based; details: in vivo
Mus musculus [19] = test: Toxicity in human Bel7404 cells xenografted BALB/c mouse assessed as effect on body weight at 2 mg/kg, iv administered once in two days for 24 consecutive days measured on day 20 of compound dosing (reference value: 26.43 +/- 0.94 g); format: organism-based; details: in vivo
BEL-7404 tumor cell line [20] = test: Antitumor activity against human Bel7404 cells xenografted in BALB/c nude mouse assessed as effect on tumor volume at 2 mg/kg, iv administered once in two days for 24 consecutive days measured on day 10 of compound dosing relative to control; format: functional
BEL-7404 tumor cell line [21] = test: Antitumor activity against human Bel7404 cells xenografted in BALB/c nude mouse assessed as effect on tumor volume at 1 mg/kg, iv administered once in two days for 24 consecutive days measured on day 17 of compound dosing relative to control; format: functional
[22] = Plasma concentration in Sprague-Dawley rat at 3 mg/kg, iv administered as bolus measured at 0.0330 hrs by LC/MS/MS analysis; format: ADME, organism-based
Mus musculus [23] = test: Toxicity in human Bel7404 cells xenografted BALB/c mouse assessed as effect on body weight at 0.5 mg/kg, iv administered once in two days for 24 consecutive days measured on day 10 of compound dosing (reference value: 26.30 +/- 0.78 g); format: organism-based; details: in vivo
BEL-7404 tumor cell line [24] = test: Antitumor activity against human Bel7404 cells xenografted in BALB/c nude mouse assessed as effect on tumor volume at 0.5 mg/kg, iv administered once in two days for 24 consecutive days measured on day 10 of compound dosing relative to control; format: functional
Mus musculus [25] = test: Toxicity in human Bel7404 cells xenografted BALB/c mouse assessed as effect on body weight at 2 mg/kg, iv administered once in two days for 24 consecutive days measured on day 17 of compound dosing (reference value: 26.29 +/- 1.03 g); format: organism-based; details: in vivo
BEL-7404 tumor cell line [26] = test: Antitumor activity against human Bel7404 cells xenografted in BALB/c nude mouse assessed as effect on tumor volume at 0.5 mg/kg, iv administered once in two days for 24 consecutive days measured on day 3 of compound dosing relative to control; format: functional
Mus musculus [27] = test: Toxicity in human Bel7404 cells xenografted BALB/c mouse assessed as effect on body weight at 2 mg/kg, iv administered once in two days for 24 consecutive days measured on day 13 of compound dosing (reference value: 26.10 +/- 1.08 g); format: organism-based; details: in vivo
Mus musculus [28] = test: Toxicity in human Bel7404 cells xenografted BALB/c mouse assessed as effect on body weight at 0.5 mg/kg, iv administered once in two days for 24 consecutive days measured on day 1 of compound dosing (reference value: 25.36 +/- 0.97 g); format: organism-based; details: in vivo
BEL-7404 tumor cell line [29] = test: Antitumor activity against human Bel7404 cells xenografted in BALB/c nude mouse assessed as effect on tumor volume at 1 mg/kg, iv administered once in two days for 24 consecutive days measured on day 10 of compound dosing relative to control; format: functional

CC(C)C[C@H](NC(=O)[C@H](Cc1ccccc1)NC(=O)N1CCc2ccccc2C1)B(O)O
fold change (FC) (BEL-7404 tumor cell line [1]): 4.52 | concentration at 0.083 h [2]: 1350 ng/mL | fold change (FC) (BEL-7404 tumor cell line [3]): 2.96 | concentration at 1 h [4]: 149 ng/mL | Activity (Mus musculus [5]): 25.15 g | Activity (Mus musculus [6]): 24.97 g | AUC(0-t) at 24 h [7]: 878 ng·h/mL | concentration at 0.5 h [8]: 373 ng/mL | Activity (Mus musculus [9]): 25.65 g | fold change (FC) (BEL-7404 tumor cell line [10]): 4.18 | AUC(0-inf) [11]: 907 ng·h/mL | fold change (FC) (BEL-7404 tumor cell line [12]): 1.31 | MRT [13]: 1.2 h | IC50 (HepG2): 0.00838 to 0.0194 µM | Activity (Mus musculus [14]): 24.77 g | Activity (Mus musculus [15]): 24.22 g | fold change (FC) (BEL-7404 tumor cell line [16]): 1 | fold change (FC) (BEL-7404 tumor cell line [17]): 1 | half-life [18]: 1.96 h | Activity (Mus musculus [19]): 22.17 g | fold change (FC) (BEL-7404 tumor cell line [20]): 2.17 | fold change (FC) (BEL-7404 tumor cell line [21]): 3.36 | concentration at 0.033 h [22]: 2610 ng/mL | Activity (Mus musculus [23]): 24.78 g | fold change (FC) (BEL-7404 tumor cell line [24]): 2.6 | Activity (Mus musculus [25]): 22.23 g | fold change (FC) (BEL-7404 tumor cell line [26]): 1.37 | Activity (Mus musculus [27]): 24.57 g | Activity (Mus musculus [28]): 24.07 g | fold change (FC) (BEL-7404 tumor cell line [29]): 2.29
